Where only a bound is given, the exact number is not on record here.

Among the data in patent publication US20160326142A1, “PYRAZOLE CARBOXAMIDE COMPOUNDS, COMPOSITIONS AND METHODS OF USE” (Genentech, Inc., priority 2012, published 2016) are Ki values, retold here.

The target in the assay is T1, ITK (Homo sapiens, UniProt Q08881).
T1 construct: purchased Invitrogen PV3875
T1 sequence (Q08881 1-620): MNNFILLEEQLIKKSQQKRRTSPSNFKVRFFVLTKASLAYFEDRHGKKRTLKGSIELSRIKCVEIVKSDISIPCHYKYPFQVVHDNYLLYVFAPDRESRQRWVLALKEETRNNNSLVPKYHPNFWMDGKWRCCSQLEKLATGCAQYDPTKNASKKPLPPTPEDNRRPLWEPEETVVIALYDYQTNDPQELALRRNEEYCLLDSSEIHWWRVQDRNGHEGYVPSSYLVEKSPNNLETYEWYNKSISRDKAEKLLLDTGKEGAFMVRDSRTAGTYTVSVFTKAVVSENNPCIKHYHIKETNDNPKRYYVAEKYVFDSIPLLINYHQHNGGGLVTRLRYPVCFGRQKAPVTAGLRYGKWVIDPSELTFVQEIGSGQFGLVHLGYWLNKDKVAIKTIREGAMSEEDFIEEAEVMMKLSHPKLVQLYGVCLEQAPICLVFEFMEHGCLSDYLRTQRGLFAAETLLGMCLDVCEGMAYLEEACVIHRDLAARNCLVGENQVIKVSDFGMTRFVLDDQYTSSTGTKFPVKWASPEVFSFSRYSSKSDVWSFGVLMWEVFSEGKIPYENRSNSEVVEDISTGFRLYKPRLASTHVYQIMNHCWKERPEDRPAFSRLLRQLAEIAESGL
In words: ITK enzyme assay (Caliper or LCMS peptide phosphorylation). The class given is biochemical. The following applies: purified ITK (Invitrogen PV3875), 20 μM ATP, Ki by Morrison's quadratic equation. The method, boiled down:
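Ki values come from Morrison quadratic fits of activity versus inhibitor concentration, adjusted for ATP-competitive inhibition against ATP/Km,app. Substrate and phosphopeptide from purified ITK reactions were resolved either microfluidically (Caliper, EDTA stop) or by LC-MS MRM (TCA stop).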
`CC1(C)CCc2c(C(=O)Nc3cnn(C(CCC#N)c4cccnc4)c3)n[nH]c2C1` (single isomer, unassigned) [Example 80a, N-(1-(3-cyano-1-(pyridin-3-yl)propyl)-1H-pyrazol-4-yl)-6,6-dimethyl-4,5,6,7-tetrahydro-1H-indazole-3-carboxamide] yielded a Ki of 2 nM.

`CC1(C)CCc2c(C(=O)Nc3cnn(C(CCC#N)c4cccnc4)c3)n[nH]c2C1` (single isomer, unassigned) [Example 80b, N-(1-(3-cyano-1-(pyridin-3-yl)propyl)-1H-pyrazol-4-yl)-6,6-dimethyl-4,5,6,7-tetrahydro-1H-indazole-3-carboxamide] returned a Ki of 2 nM. The figure for `CC1(C)CCc2c(C(=O)Nc3cnn(C(CO)c4cccnc4)c3)n[nH]c2C1` (single isomer, unassigned) [Example 81a, N-(1-(2-hydroxy-1-(pyridin-3-yl)ethyl)-1H-pyrazol-4-yl)-6,6-dimethyl-4,5,6,7-tetrahydro-1H-indazole-3-carboxamide] is 17 nM. In the case of `CC1(C)CCc2c(C(=O)Nc3cnn(C(CO)c4cccnc4)c3)n[nH]c2C1` (single isomer, unassigned) [Example 81b, N-(1-(2-hydroxy-1-(pyridin-3-yl)ethyl)-1H-pyrazol-4-yl)-6,6-dimethyl-4,5,6,7-tetrahydro-1H-indazole-3-carboxamide], the Ki came out at 3 nM. The figure for `CC(c1cscn1)n1cc(NC(=O)c2n[nH]c3c2CCC(C)(C)C3)cn1` (single isomer, unassigned) [Example 84a, 6,6-dimethyl-N-(1-(1-(thiazol-4-yl)ethyl)-1H-pyrazol-4-yl)-4,5,6,7-tetrahydro-1H-indazole-3-carboxamide] is 46 nM. With `CC(c1cscn1)n1cc(NC(=O)c2n[nH]c3c2CCC(C)(C)C3)cn1` (single isomer, unassigned) [Example 84b, 6,6-dimethyl-N-(1-(1-(thiazol-4-yl)ethyl)-1H-pyrazol-4-yl)-4,5,6,7-tetrahydro-1H-indazole-3-carboxamide] the figure was 13 nM; with `CC1(C)CCc2c(C(=O)Nc3cnn(C(c4nccs4)C4CCSCC4)c3)n[nH]c2C1` (single isomer, unassigned) [Example 85a, 6,6-dimethyl-N-(1-((tetrahydro-2H-thiopyran-4-yl)(thiazol-2-yl)methyl)-1H-pyrazol-4-yl)-4,5,6,7-tetrahydro-1H-indazole-3-carboxamide], 0.6 nM.

`CC1(C)CCc2c(C(=O)Nc3cnn(C(c4nccs4)C4CCSCC4)c3)n[nH]c2C1` (single isomer, unassigned) [Example 85b, 6,6-dimethyl-N-(1-((tetrahydro-2H-thiopyran-4-yl)(thiazol-2-yl)methyl)-1H-pyrazol-4-yl)-4,5,6,7-tetrahydro-1H-indazole-3-carboxamide]: affinity was put at a Ki of 0.9 nM. Against the preceding compound, the Ki is about 1.5-fold higher.

The compound `CC1(C)CCc2c(C(=O)Nc3cnn(C(c4nccs4)C4CCS(=O)(=O)CC4)c3)n[nH]c2C1` (single isomer, unassigned) [Example 87a, N-(1-((1,1-dioxidotetrahydro-2H-thiopyran-4-yl)(thiazol-2-yl)methyl)-1H-pyrazol-4-yl)-6,6-dimethyl-4,5,6,7-tetrahydro-1H-indazole-3-carboxamide] showed a Ki of 0.4 nM. Compared with the last compound, the Ki is about 2.2-fold lower. With `CC1(C)CCc2c(C(=O)Nc3cnn(C(c4nccs4)C4CCS(=O)(=O)CC4)c3)n[nH]c2C1` (single isomer, unassigned) [Example 87b, N-(1-((1,1-dioxidotetrahydro-2H-thiopyran-4-yl)(thiazol-2-yl)methyl)-1H-pyrazol-4-yl)-6,6-dimethyl-4,5,6,7-tetrahydro-1H-indazole-3-carboxamide] the figure was 1 nM. Consider `CC1(C)CCc2c(C(=O)Nc3cnn(C(c4cccnc4)C4CCOCC4)c3)n[nH]c2C1` (single isomer, unassigned) [Example 88a, 6,6-dimethyl-N-(1-(pyridin-3-yl(tetrahydro-2H-pyran-4-yl)methyl)-1H-pyrazol-4-yl)-4,5,6,7-tetrahydro-1H-indazole-3-carboxamide], for which the Ki turned out to be 0.1 nM. Take `CC1(C)CCc2c(C(=O)Nc3cnn(C(c4cccnc4)C4CCOCC4)c3)n[nH]c2C1` (single isomer, unassigned) [Example 88b, 6,6-dimethyl-N-(1-(pyridin-3-yl(tetrahydro-2H-pyran-4-yl)methyl)-1H-pyrazol-4-yl)-4,5,6,7-tetrahydro-1H-indazole-3-carboxamide]: affinity was put at a Ki of 0.7 nM. `CC1(C)CCc2c(C(=O)Nc3cnn(C(c4ccccc4)C4CS(=O)(=O)C4)c3)n[nH]c2C1` (single isomer, unassigned) [Example 89a] registered a Ki of 0.2 nM. Against the preceding compound, the Ki is about 3.5-fold lower. With `CC1(C)CCc2c(C(=O)Nc3cnn(C(c4ccccc4)C4CS(=O)(=O)C4)c3)n[nH]c2C1` (single isomer, unassigned) [Example 89b] the figure was 4 nM; with `CC1(C)Cc2[nH]nc(C(=O)Nc3cnn(Cc4ccccc4)c3)c2CC1C#N` (single isomer, unassigned) [Example 90a, N-(1-benzyl-1H-pyrazol-4-yl)-5-cyano-6,6-dimethyl-4,5,6,7-tetrahydro-1H-indazole-3-carboxamide], 570 nM; with `CC1(C)Cc2[nH]nc(C(=O)Nc3cnn(Cc4ccccc4)c3)c2CC1C#N` (single isomer, unassigned) [Example 90b, N-(1-benzyl-1H-pyrazol-4-yl)-5-cyano-6,6-dimethyl-4,5,6,7-tetrahydro-1H-indazole-3-carboxamide], 10 nM.

On to `CC(c1cnn(C)c1)n1cc(NC(=O)c2n[nH]c3c2CCC(C)(C)C3)cn1` (single isomer, unassigned) [Example 91a, 6,6-dimethyl-N-(1-(1-(1-methyl-1H-pyrazol-4-yl)ethyl)-1H-pyrazol-4-yl)-4,5,6,7-tetrahydro-1H-indazole-3-carboxamide], for which the Ki worked out at 11 nM. The figure for `CC(c1cnn(C)c1)n1cc(NC(=O)c2n[nH]c3c2CCC(C)(C)C3)cn1` (single isomer, unassigned) [Example 91b, 6,6-dimethyl-N-(1-(1-(1-methyl-1H-pyrazol-4-yl)ethyl)-1H-pyrazol-4-yl)-4,5,6,7-tetrahydro-1H-indazole-3-carboxamide] is 19 nM; for `CC(c1nccs1)n1cc(NC(=O)c2n[nH]c3c2CCC(C)(C)C3)cn1` (single isomer, unassigned) [Example 92a, 6,6-dimethyl-N-(1-(1-(thiazol-2-yl)ethyl)-1H-pyrazol-4-yl)-4,5,6,7-tetrahydro-1H-indazole-3-carboxamide] it is 7 nM. The figure for `CC(c1nccs1)n1cc(NC(=O)c2n[nH]c3c2CCC(C)(C)C3)cn1` (single isomer, unassigned) [Example 92b, 6,6-dimethyl-N-(1-(1-(thiazol-2-yl)ethyl)-1H-pyrazol-4-yl)-4,5,6,7-tetrahydro-1H-indazole-3-carboxamide] is 10 nM.

As to `CC12Cc3[nH]nc(C(=O)Nc4cnn(C(CS(C)(=O)=O)c5cccnc5)c4)c3CC1C2` (single isomer, unassigned) [Example 93a, 5a-methyl-N-(1-(2-(methylsulfonyl)-1-(pyridin-3-yl)ethyl)-1H-pyrazol-4-yl)-1,4,4a,5,5a,6-hexahydrocyclopropa[f]indazole-3-carboxamide], the Ki is below 0.1 nM. The figure for `CC12Cc3[nH]nc(C(=O)Nc4cnn(C(CS(C)(=O)=O)c5cccnc5)c4)c3CC1C2` (single isomer, unassigned) [Example 93b, 5a-methyl-N-(1-(2-(methylsulfonyl)-1-(pyridin-3-yl)ethyl)-1H-pyrazol-4-yl)-1,4,4a,5,5a,6-hexahydrocyclopropa[f]indazole-3-carboxamide] is 1 nM; for `CC1(C)Cc2[nH]nc(C(=O)Nc3cnn(C(c4ccccc4)C4CCS(=O)(=O)CC4)c3)c2C1` (single isomer, unassigned) [Example 94a, N-(1-((1,1-dioxidotetrahydro-2H-thiopyran-4-yl)(phenyl)methyl)-1H-pyrazol-4-yl)-5,5-dimethyl-1,4,5,6-tetrahydrocyclopenta[c]pyrazole-3-carboxamide] it is 0.3 nM. With `CC1(C)Cc2[nH]nc(C(=O)Nc3cnn(C(c4ccccc4)C4CCS(=O)(=O)CC4)c3)c2C1` (single isomer, unassigned) [Example 94b, N-(1-((1,1-dioxidotetrahydro-2H-thiopyran-4-yl)(phenyl)methyl)-1H-pyrazol-4-yl)-5,5-dimethyl-1,4,5,6-tetrahydrocyclopenta[c]pyrazole-3-carboxamide] the figure was 13 nM; with `CC1(C)Cc2[nH]nc(C(=O)Nc3cnn(Cc4ccccc4)c3)c2CC1CO` (single isomer, unassigned) [Example 95a, N-(1-benzyl-1H-pyrazol-4-yl)-5-(hydroxymethyl)-6,6-dimethyl-4,5,6,7-tetrahydro-1H-indazole-3-carboxamide], 5 nM. The figure for `CC1(C)Cc2[nH]nc(C(=O)Nc3cnn(Cc4ccccc4)c3)c2CC1CO` (single isomer, unassigned) [Example 95b, N-(1-benzyl-1H-pyrazol-4-yl)-5-(hydroxymethyl)-6,6-dimethyl-4,5,6,7-tetrahydro-1H-indazole-3-carboxamide] is 320 nM.

What is called Ki is a measure of affinity in units of concentration, obtained from inhibition or displacement. The low end stands for tighter binding, the high end for weaker binding.
